Counter-ions that a name gives are not always drawn.
Molecular target: T1, histamine H3 receptor (Homo sapiens, UniProt Q9Y5N1)
T1 construct: expressed in transfected cells; host or cells: CHO K1 cells carrying pSwitch, transfected with pGeneH3 and induced with mifepristone; clone 3H3; membranes
Assay: Histamine H3 functional antagonist assay ([35S]GTPγS, SPA, membranes of CHO K1 cells expressing the receptor)
Format: biochemical
Settings: histamine-stimulated GTPγS binding, membranes with human H3
From the text: A membrane preparation containing histamine H3 receptors may be prepared in accordance with the following procedures:
(i) Generation of Histamine H3 Cell Line
DNA encoding the human histamine H3 gene (Huvar, A. et al. (1999) Mol. Pharmacol. 55(6), 1101-1107) was cloned into a holding vector, pCDNA3.1 TOPO (InVitrogen) and its cDNA was isolated from this vector by restriction digestion of plasmid DNA with the enzymes BamH1 and Not-1 and ligated into the inducible expression vector pGene (InVitrogen) digested with the same enzymes. The GeneSwitch™ system (a system where in transgene expression is switched off in the absence of an inducer and switched on in the presence of an inducer) was performed as described in U.S. Pat. Nos. 5,364,791; 5,874,534; and 5,935,934. Ligated DNA was transformed into competent DH5α E. coli host bacterial cells and plated onto Luria Broth (LB) agar containing Zeocin™ (an antibiotic which allows the selection of cells expressing the sh ble gene which is present on pGene and pSwitch) at 50 μg ml^−1. Colonies containing the re-ligated plasmid were identified by restriction analysis. DNA for transfection into mammalian cells was prepared from 250 ml cultures of the host bacterium containing the pGeneH3 plasmid and isolated using a DNA preparation kit (Qiagen Midi-Prep) as per manufacturers guidelines (Qiagen).
CHO K1 cells previously transfected with the pSwitch regulatory plasmid (InVitrogen) were seeded at 2×10e6cells per T75 flask in Complete Medium, containing Hams F12 (GIBCOBRL, Life Technologies) medium supplemented with 10% v/v dialysed foetal bovine serum, L-glutamine, and hygromycin ([…]), 24 hours prior to use. Plasmid DNA was transfected into the cells using Lipofectamine plus according to the manufacturers guidelines (InVitrogen). 48 hours post transfection cells were placed into complete medium supplemented with […] Zeocin™.
10-14 days post selection 10 nM Mifepristone (InVitrogen), was added to the culture medium to induce the expression of the receptor. 18 hours post induction cells were detached from the flask using ethylenediamine tetra-acetic acid (EDTA; 1:5000; InVitrogen), following several washes with phosphate buffered saline pH 7.4and resuspended in Sorting Medium containing Minimum Essential Medium (MEM), without phenol red, and supplemented with Earles salts and 3% Foetal Clone II (Hyclone). Approximately 1×10e7 cells were examined for receptor expression by staining with a rabbit polyclonal antibody, 4a, raised against the N-terminal domain of the histamine H3 receptor, incubated on ice for 60 minutes, followed by two washes in sorting medium. Receptor bound antibody was detected by incubation of the cells for 60 minutes on ice with a goat anti rabbit antibody, conjugated with Alexa 488 fluorescence marker (Molecular Probes). Following two further washes with Sorting Medium, cells were filtered through a 50 μm Filcon™ (BD Biosciences) and then analysed on a FACS Vantage SE Flow Cytometer fitted with an Automatic Cell Deposition Unit. Control cells were non-induced cells treated in a similar manner. Positively stained cells were sorted as single cells into 96-well plates, containing Complete Medium containing 500 μg ml^−1 Zeocin™ and allowed to expand before reanalysis for receptor expression via antibody and ligand binding studies. One clone, 3H3, was selected for membrane preparation.
(ii) Membrane Preparation from Cultured Cells
All steps of the protocol are carried out at 4° C. and with pre-cooled reagents. The cell pellet is resuspended in 10 volumes of buffer A2 containing 50 mM N-2-hydroxyethylpiperazine-N′-2-ethanesulfonic acid (HEPES) (pH 7.40) supplemented with […] leupeptin (acetyl-leucyl-leucyl-arginal; Sigma L2884), 25 μg/ml bacitracin (Sigma B0125), 1 mM ethylenediamine tetra-acetic acid (EDTA), 1 mM phenylmethylsulfonyl fluoride (PMSF) and 2×10e-6M pepstain A (Sigma). […]

T1 sequence (Q9Y5N1 whole entry): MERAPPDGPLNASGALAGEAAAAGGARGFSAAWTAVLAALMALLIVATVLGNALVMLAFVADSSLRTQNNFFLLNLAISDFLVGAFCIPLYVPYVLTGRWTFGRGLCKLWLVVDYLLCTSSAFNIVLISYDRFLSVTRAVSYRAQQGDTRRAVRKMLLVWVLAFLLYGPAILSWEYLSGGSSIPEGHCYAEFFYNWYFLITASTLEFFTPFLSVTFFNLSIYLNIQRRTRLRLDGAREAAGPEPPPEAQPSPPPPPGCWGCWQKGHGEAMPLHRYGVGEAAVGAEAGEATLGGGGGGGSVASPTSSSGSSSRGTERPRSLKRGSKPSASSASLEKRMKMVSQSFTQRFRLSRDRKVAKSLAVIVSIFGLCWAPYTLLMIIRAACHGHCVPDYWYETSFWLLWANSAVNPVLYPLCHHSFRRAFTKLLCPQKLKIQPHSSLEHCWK

Row | Compound | Ki [nM]
1 | CC(C)(C)OC(=O)c1ccc(N2CCC(OC3CCN(C4CCC4)CC3)CC2)cn1 [Example E96, 1,1-Dimethylethyl 5-{4-[(1-cyclobutyl-4-piperidinyl)oxy]-1-piperidinyl}-2-pyridinecarboxylate] | ≤ 1
2 | CC(C)N1CCC(OC2CCN(c3ccc(C(=O)N4CCCCC4)cc3)CC2)CC1 [Example E8] | ≤ 1
3 | O=C(NC1CCC1)c1ccc(N2CCC(OC3CCN(C4CCC4)CC3)CC2)cn1 [Example E104, N-Cyclobutyl-5-{4-[(1-cyclobutyl-4-piperidinyl)oxy]-1-piperidinyl}-2-pyridinecarboxamide] | ≤ 1
4 | Cc1noc(-c2ccc(N3CCC(OC4CCN(C(C)C)CC4)CC3)c(F)c2)n1 [Example E112, 1-[2-Fluoro-4-(3-methyl-1,2,4-oxadiazol-5-yl)phenyl]-4-{[1-(1-methylethyl)-4-piperidinyl]oxy}piperidine hydrochloride] | ≤ 1
5 | CC(C)N1CCC(OC2CCN(c3ccc(C(=O)N4CCCC4)cc3)CC2)CC1 [Example E10] | ≤ 1
6 | Cc1cc(-c2ccc(N3CCC(OC4CCN(C(C)C)CC4)CC3)cc2)on1 [Example E23] | ≤ 1
7 | Cc1nc(-c2ccc(N3CCC(OC4CCN(C(C)C)CC4)CC3)cc2)co1 [Example E18] | < 10
8 | O=C(c1ccc(N2CCC(OC3CCN(C4CCC4)CC3)CC2)cn1)N1CCOCC1 [Example E37] | ≤ 1
9 | Cc1ncc(-c2ccc(N3CCC(OC4CCN(C(C)C)CC4)CC3)cc2)o1 [Example E20] | < 10
10 | FC(F)(F)c1ccc(N2CCC(OC3CCN(C4CCC4)CC3)CC2)nc1 [Example E86, 2-{4-[(1-Cyclobutyl-4-piperidinyl)oxy]-1-piperidinyl}-5-(trifluoromethyl)pyridine hydrochloride] | ≤ 1
11 | CC(C)N1CCC(OC2CCN(c3cnc(C(F)(F)F)cn3)CC2)CC1 [Example E85, 2-(4-[1-(1-Methylethyl)-4-piperidinyl]oxy}-1-piperidinyl)-5-(trifluoromethyl)pyrazine hydrochloride] | ≤ 1
12 | CC(C)N1CCC(OC2CCN(c3ccc(C(F)(F)F)cn3)CC2)CC1 [Example E87, 2-(4-{[1-(1-Methylethyl)-4-piperidinyl]oxy}-1-piperidinyl)-5-(trifluoromethyl)pyridine hydrochloride] | < 10
13 | O=C(c1ccc(N2CCC(OC3CCN(C4CCC4)CC3)CC2)nc1)N1CCOCC1 [Example E57] | ≤ 1
14 | CNC(=O)c1ccc(N2CCC(OC3CCN(C4CCC4)CC3)CC2)nc1 [Example E54] | ≤ 1
15 | CC(C)N1CCC(OC2CCN(c3cnc(C(=O)NC4CCC4)cn3)CC2)CC1 [Example E79] | ≤ 1
16 | CN(C)C(=O)c1ccc(N2CCC(OC3CCN(C4CCC4)CC3)CC2)cn1 [Example E31, 5-{4-[(1-Cyclobutyl-4-piperidinyl)oxy]-1-piperidinyl}-N,N-dimethyl-2-pyridinecarboxamide hydrochloride] | ≤ 1
17 | c1ncc(-c2ccc(N3CCC(OC4CCN(C5CCC5)CC4)CC3)cc2)o1 [Example E29] | ≤ 1
18 | CC(C)N1CCC(OC2CCN(c3ccc(C(=O)N4CCOCC4)cc3)CC2)CC1 [Example E7] | ≤ 1

Tested on: not given
Assay: not given
Settings: not given

Row | Compound | melting point [°C]
19 | CNC(=O)c1ccc(N2CCC(OC3CCN(C4CCC4)CC3)CC2)cn1 [Example E38A, 5-{4-[(1-Cyclobutyl-4-piperidinyl)oxy]-1-piperidinyl}-N-methyl-2-pyridinecarboxamide] | 109.7

— patent publication US20060247227A1, “Substituted piperidines as histamine h3 receptor ligands” (priority 2003, published 2006)
